Data taken from ChEMBL document CHEMBL1201862, “PubChem BioAssay data set” (2004).
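Each compound was tested at five concentrations against cells in 96-well plates for 48 hours. At the GI50, growth is halved.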 Calls of active or inactive are those of the source. Cut-off read from the data, not from the text of the source: active = GI50 up to about 1.1 µM and inactive = higher.

What was measured:
Test in all cases: DTP human tumour cell line panel, 48 h
HT-29 = test system: HT-29
U-251 = test system: U-251
NCI-H23 = test system: NCI-H23
MDA-N = test system: MDA-N
SF-539 = test system: SF-539
BT-549 = test system: BT-549
DU-145 = test system: DU-145
HOP-62 = test system: HOP-62
HOP-92 = test system: HOP-92
EKVX = test system: EKVX
Hs-578T = test system: Hs-578T
SF-268 = test system: SF-268
HCT-15 = test system: HCT-15
MDA-MB-435 = test system: MDA-MB-435
MDA-MB-231 = test system: MDA-MB-231
UACC-257 = test system: UACC-257
T47D = test system: T47D
MCF7 = test system: MCF7
CAKI-1 = test system: CAKI-1
SK-OV-3 = test system: SK-OV-3

| Structure (SMILES) | GI50 (HT-29) | GI50 (U-251) | GI50 (NCI-H23) | GI50 (MDA-N) | GI50 (SF-539) | GI50 (BT-549) | GI50 (DU-145) | GI50 (HOP-62) | GI50 (HOP-92) | GI50 (EKVX) | GI50 (Hs-578T) | GI50 (SF-268) | GI50 (HCT-15) [µM] | GI50 (MDA-MB-435) | GI50 (MDA-MB-231) | GI50 (UACC-257) | GI50 (T47D) | GI50 (MCF7) | GI50 (CAKI-1) | GI50 (SK-OV-3) |
| --- | --- | --- | --- | --- | --- | --- | --- | --- | --- | --- | --- | --- | --- | --- | --- | --- | --- | --- | --- | --- |
| CC1(C)Oc2ccc3ccc(=O)oc3c2C(O)C1O (configuration not stated) | 28.1 µM (inactive) | 38.3 µM (inactive) | 44.2 µM (inactive) | 35.1 µM (inactive) | 22.9 µM (inactive) | 22.5 µM (inactive) | 55.8 µM (inactive) | 36.1 µM (inactive) | 57.8 µM (inactive) | 48.1 µM (inactive) | 52.1 µM (inactive) | 40.6 µM (inactive) | 41.9 | 33.7 µM (inactive) | 71.8 µM (inactive) | 29.4 µM (inactive) | 35.3 µM (inactive) | 33.9 µM (inactive) | 67.1 µM (inactive) |  |
| COc1cc2oc(-c3ccc4c(c3)OCO4)c(OC)c(=O)c2c(OC)c1OC | > 100 µM (inactive) | 38.2 µM (inactive) | 39.4 µM (inactive) | > 100 µM (inactive) | 45.2 µM (inactive) | 38.7 µM (inactive) | > 100 µM (inactive) | 27.4 µM (inactive) | 1.35 µM (inactive) | 66.5 µM (inactive) | 52.2 µM (inactive) | 27.9 µM (inactive) | > 100 | > 100 µM (inactive) | > 100 µM (inactive) | > 100 µM (inactive) | > 100 µM (inactive) | > 100 µM (inactive) | 19.1 µM (inactive) | 44.7 µM (inactive) |
| Cc1cc(S(=O)(=O)Nc2nc(N)n(-c3cnc4ccccc4n3)n2)c(S)cc1Cl | > 100 µM (inactive) | 41.9 µM (inactive) |  | > 100 µM (inactive) | > 100 µM (inactive) | 16.6 µM (inactive) | > 100 µM (inactive) | 69.5 µM (inactive) | 16.6 µM (inactive) | > 100 µM (inactive) | 78.5 µM (inactive) | 85.3 µM (inactive) | > 100 | > 100 µM (inactive) | > 100 µM (inactive) | > 100 µM (inactive) | > 100 µM (inactive) | > 100 µM (inactive) | 95.3 µM (inactive) | 85.7 µM (inactive) |
| CC(=O)OC(C)(C)/N=N/c1ccc(Br)cc1 | 0.975 µM (active) | 25.1 µM (inactive) | 25.8 µM (inactive) | 0.178 µM (active) | 0.841 µM (active) | 97.7 µM (inactive) | 54.2 µM (inactive) | 34.3 µM (inactive) | 23.7 µM (inactive) | 9.38 µM (inactive) | > 53.2 µM (inactive) | 17.4 µM (inactive) | 0.977 | 1.08 µM (active) | > 76.2 µM (inactive) | 5.45 µM (inactive) | 1.09 µM (active) | 0.551 µM (active) | 16.7 µM (inactive) | > 33.9 µM (inactive) |
| O=c1[nH]nc(Cc2c[nH]c3ccccc23)o1 | > 100 µM (inactive) | > 100 µM (inactive) | > 100 µM (inactive) | > 100 µM (inactive) | > 100 µM (inactive) | > 100 µM (inactive) | > 100 µM (inactive) | > 100 µM (inactive) | > 100 µM (inactive) | > 100 µM (inactive) | > 100 µM (inactive) | > 100 µM (inactive) | > 100 | > 100 µM (inactive) | > 100 µM (inactive) | > 100 µM (inactive) | > 100 µM (inactive) | > 100 µM (inactive) | > 100 µM (inactive) |  |
| CCC(C)[C@H](NC(=O)[C@H](Cc1ccccc1)NC(=O)N(CC)c1ccccc1)C(=O)N[C@@H](CC(C)C)C(=O)OC (some centres not stated) |  | 38.5 µM (inactive) | 31 µM (inactive) | 45.1 µM (inactive) | 24.2 µM (inactive) | 33.5 µM (inactive) | 33.9 µM (inactive) | 33 µM (inactive) | 40.7 µM (inactive) | 49.3 µM (inactive) | 63.1 µM (inactive) | 36.5 µM (inactive) | 38.6 | 24 µM (inactive) | 27.7 µM (inactive) | 24.9 µM (inactive) | 43.5 µM (inactive) | 25.7 µM (inactive) | 58.5 µM (inactive) | > 100 µM (inactive) |
| CC(C)(C)OC(=O)NCCCCC(NC(=O)c1ccccc1)C(N)=O (configuration not stated) | > 100 µM (inactive) | > 100 µM (inactive) | > 100 µM (inactive) | > 100 µM (inactive) | > 100 µM (inactive) | > 100 µM (inactive) | > 100 µM (inactive) | > 100 µM (inactive) |  | > 100 µM (inactive) | > 100 µM (inactive) | > 100 µM (inactive) | > 100 | > 100 µM (inactive) | > 100 µM (inactive) | > 100 µM (inactive) | > 100 µM (inactive) | > 100 µM (inactive) | > 100 µM (inactive) | 99.1 µM (inactive) |
| Cc1oc2c(cc(O)c3cc(O)ccc32)c2cccc1-2 | > 100 µM (inactive) | > 100 µM (inactive) | > 100 µM (inactive) | > 100 µM (inactive) | > 100 µM (inactive) | 0.697 µM (active) | > 100 µM (inactive) | > 100 µM (inactive) | > 100 µM (inactive) | > 100 µM (inactive) | > 100 µM (inactive) | > 100 µM (inactive) | > 100 | > 100 µM (inactive) | > 100 µM (inactive) | > 100 µM (inactive) | 42.1 µM (inactive) | 33.4 µM (inactive) | > 100 µM (inactive) | > 100 µM (inactive) |
| O=c1[nH]nc(Cc2ccc(Cl)cc2)n1Nc1ccccc1 | > 100 µM (inactive) | > 100 µM (inactive) | > 100 µM (inactive) | > 100 µM (inactive) | 80 µM (inactive) | > 100 µM (inactive) | 4.94 µM (inactive) | 79.6 µM (inactive) | > 100 µM (inactive) | > 100 µM (inactive) | 47.9 µM (inactive) |  | > 100 | > 100 µM (inactive) | > 100 µM (inactive) | > 100 µM (inactive) | > 100 µM (inactive) | > 100 µM (inactive) | > 100 µM (inactive) |  |
| Nc1nc(O)nc2snnc12 | > 100 µM (inactive) | 25.1 µM (inactive) | > 100 µM (inactive) | 8.28 µM (inactive) | 15.9 µM (inactive) | 3.54 µM (inactive) | 16.9 µM (inactive) | 8.07 µM (inactive) | 20.3 µM (inactive) | > 100 µM (inactive) | > 54.8 µM (inactive) | 5.04 µM (inactive) | > 89.7 | 4.59 µM (inactive) | 7.13 µM (inactive) | 24.7 µM (inactive) | 4.57 µM (inactive) | > 100 µM (inactive) | 1.77 µM (inactive) | 50.2 µM (inactive) |
| COc1cc2cc3c4cc(OC)c(OC)cc4cc[n+]3c(C)c2cc1OC [CORALYNE] | 77.4 µM (inactive) | 9.59 µM (inactive) | > 100 µM (inactive) | > 100 µM (inactive) | 41.7 µM (inactive) | 10.8 µM (inactive) | > 100 µM (inactive) |  | > 100 µM (inactive) | 60.7 µM (inactive) | 24.9 µM (inactive) | 1.96 µM (inactive) | 48.2 | > 100 µM (inactive) | > 100 µM (inactive) | 35.4 µM (inactive) | > 100 µM (inactive) | > 100 µM (inactive) | 67.1 µM (inactive) | > 100 µM (inactive) |
